How the values were obtained:
Type in all cases: in vivo
[1] = tested on: foxtail, green (Setaria viridis); experiment: Test A pre-/postemergence greenhouse test
Text: (§1) Seeds of plant species selected from barnyardgrass (Echinochloa crus-galli), kochia (Kochia scoparia), ragweed (common ragweed, Ambrosia elatior), ryegrass, Italian (Lolium multiflorum), foxtail, giant (Setaria faberii), foxtail, green (Setaria viridis) and pigweed (Amaranthus retroflexus) were planted into a blend of loam soil and sand and treated preemergence with a directed soil spray using test chemicals formulated in a non-phytotoxic solvent mixture which included a surfactant.
(§2) At the same time, plants selected from these weed species and also wheat (Triticum aestivum), corn (Zea mays), blackgrass (Alopecurus myosuroides) and galium (catchweed bedstraw, Galium aparine) were planted in pots containing the same blend of loam soil and sand and treated with postemergence applications of test chemicals formulated in the same manner. Plants ranged in height from 2 to 10 cm and were in the one- to two-leaf stage for the postemergence treatment. Treated plants and untreated controls were maintained in a greenhouse for approximately 10 d, after which time all treated plants were compared to untreated controls and visually evaluated for injury. Plant response ratings, summarized in Table A, are based on a 0 to 100 scale where 0 is no effect and 100 is complete control. A dash (-) response means no test result.

[2] = tested on: nutsedge, yellow (Cyperus esculentus); experiment: Test C pre-/postemergence greenhouse test; conditions: scale 0 to 100
Summary of the method: (§3)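 Test chemicals were formulated in a non-phytotoxic solvent mixture with surfactant and applied preemergence to seeds in silt loam soil or postemergence to plants of 2 to 18 cm in a peat/vermiculite medium. After 13 to 21 d in a greenhouse, response was visually scored from 0 (no effect) to 100 (complete control).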

[3] = tested on: galium (catchweed bedstraw, Galium aparine); experiment: Test C pre-/postemergence greenhouse test; conditions: scale 0 to 100
Summary of the method: as §3

[4] = tested on: velvetleaf (Abutilon theophrasti); experiment: Test C pre-/postemergence greenhouse test; conditions: scale 0 to 100
Summary of the method: as §3

[5] = tested on: poinsettia, wild (Euphorbia heterophylla); experiment: Test C pre-/postemergence greenhouse test; conditions: scale 0 to 100
Summary of the method: as §3

[6] = tested on: barnyardgrass (Echinochloa crus-galli); experiment: Test C pre-/postemergence greenhouse test; conditions: scale 0 to 100
Summary of the method: as §3

[7] = tested on: buckwheat, wild (Polygonum convolvulus); experiment: Test C postemergence greenhouse test; conditions: scale 0 to 100
Text: (§4) Seeds of plant species selected from blackgrass (Alopecurus myosuroides), ryegrass, Italian (Lolium multiflorum), wheat, winter (winter wheat, Triticum aestivum), galium (catchweed bedstraw, Galium aparine), corn (Zea mays), crabgrass, large (Digitaria sanguinalis), foxtail, giant (Setaria faberii), johnsongrass (Sorghum halepense), lambsquarters (Chenopodium album), morningglory (Ipomoea coccinea), nutsedge, yellow (Cyperus esculentus), pigweed (Amaranthus retroflexus), ragweed (common ragweed, Ambrosia elatior), soybean (Glycine max), barnyardgrass (Echinochloa crus-galli), oilseed rape (Brassica napus), waterhemp (common waterhemp, Amaranthus rudis), pigweed, palmer (Amaranthus palmeri), kochia (Kochia scoparia), oat, wild (Avena fatua), surinam grass (Brachiaria decumbens), windgrass (Apera spica-venti), poinsettia, wild (Euphorbia heterophylla) and velvetleaf (Abutilon theophrasti) were planted into a silt loam soil and treated preemergence with test chemicals formulated in a non-phytotoxic solvent mixture which included a surfactant.
(§5) At the same time, plants selected from these crop and weed species and also chickweed (common chickweed, Stellaria media), buckwheat, wild (Polygonum convolvulus), mustard, wild (Sinapis arvensis), field poppy (Papaver rhoeas), field violet (Viola arvensis), nightshade (eastern black nightshade, Solanum ptycanthum), speedwell (bird's-eye speedwell, Veronica persica), horseweed (Conyza canadensis), cutleaf geranium (Geranium dissectum), and Canada thistle (Cirsium arvense) were planted in pots containing Redi-Earth® planting medium (Scotts Company, 14111 Scottslawn Road, Marysville, Ohio 43041) comprising spaghnum peat moss, vermiculite, wetting agent and starter nutrients and treated with postemergence applications of test chemicals formulated in the same manner. Plants ranged in height from 2 to 18 cm (1- to 4-leaf stage) for postemergence treatments. Treated plants and controls were maintained in a greenhouse for 13 to 21 d, after which time all species were compared to controls and visually evaluated. Plant response ratings, summarized in Table C-1 (postemergence) and C-2 (preemergence), are based on a scale of 0 to 100 where 0 is no effect and 100 is complete control. A dash (-) response means no test result.

[8] = tested on: Canada thistle (Cirsium arvense); experiment: Test C postemergence greenhouse test; conditions: scale 0 to 100
Text: as §4, §5

[9] = tested on: speedwell (bird's-eye speedwell, Veronica persica); experiment: Test C postemergence greenhouse test; conditions: scale 0 to 100
Text: as §4, §5

[10] = tested on: field violet (Viola arvensis); experiment: Test C postemergence greenhouse test; conditions: scale 0 to 100
Text: as §4, §5

[11] = tested on: blackgrass (Alopecurus myosuroides); experiment: Test A postemergence greenhouse test
Text: as §1, §2

[12] = tested on: wheat (Triticum aestivum); experiment: Test A postemergence greenhouse test
Text: as §1, §2

[13] = tested on: galium (catchweed bedstraw, Galium aparine); experiment: Test A postemergence greenhouse test
Text: as §1, §2

corn (Zea mays) = experiment: Test A postemergence greenhouse test
Text: as §1, §2

Cc1ccc2ccc(Cl)cc2c1-c1c(O)c(Cl)nn(C)c1=O [Cpd. No. 22]
Plant response rating (0 to 100 scale) ([1]; Postemergence, 31 g ai/ha): 100 | Plant response rating (0 to 100 scale) ([1]; Postemergence, 125 g ai/ha): 100 | Plant response rating (0 to 100 scale) ([1]; Preemergence, 31 g ai/ha): 90 | Plant response rating (0 to 100 scale) ([1]; Preemergence, 125 g ai/ha): 100 | Plant response rating, Nutsedge, Yellow ([2]; Postemergence, 16 g ai/ha): 10 | Plant response rating, Nutsedge, Yellow ([2]; Postemergence, 31 g ai/ha): 35 | Plant response rating, Nutsedge, Yellow ([2]; Postemergence, 62 g ai/ha): 90 | Plant response rating, Nutsedge, Yellow ([2]; Postemergence, 125 g ai/ha): 85 | Plant response rating, Nutsedge, Yellow ([2]; Preemergence, 31 g ai/ha): 50 | Plant response rating, Nutsedge, Yellow ([2]; Preemergence, 61 g ai/ha): 25 | Plant response rating, Nutsedge, Yellow ([2]; Preemergence, 62 g ai/ha): 75 | Plant response rating, Nutsedge, Yellow ([2]; Preemergence, 125 g ai/ha): 95 | Plant response rating, Galium ([3]; Postemergence, 16 g ai/ha): 85 | Plant response rating, Galium ([3]; Postemergence, 31 g ai/ha): 85 | Plant response rating, Galium ([3]; Postemergence, 62 g ai/ha): 95 | Plant response rating, Galium ([3]; Postemergence, 125 g ai/ha): 98 | Plant response rating, Galium ([3]; Preemergence, 31 g ai/ha): 50 | Plant response rating, Galium ([3]; Preemergence, 61 g ai/ha): 20 | Plant response rating, Galium ([3]; Preemergence, 62 g ai/ha): 70 | Plant response rating, Galium ([3]; Preemergence, 125 g ai/ha): 95 | Plant response rating, Velvetleaf ([4]; Postemergence, 16 g ai/ha): 55 | Plant response rating, Velvetleaf ([4]; Postemergence, 31 g ai/ha): 60 | Plant response rating, Velvetleaf ([4]; Postemergence, 62 g ai/ha): 80 | Plant response rating, Velvetleaf ([4]; Postemergence, 125 g ai/ha): 85 | Plant response rating, Velvetleaf ([4]; Preemergence, 31 g ai/ha): 60 | Plant response rating, Velvetleaf ([4]; Preemergence, 61 g ai/ha): 10 | Plant response rating, Velvetleaf ([4]; Preemergence, 62 g ai/ha): 90 | Plant response rating, Velvetleaf ([4]; Preemergence, 125 g ai/ha): 80 | Plant response rating, Poinsettia, Wild ([5]; Postemergence, 16 g ai/ha): 25 | Plant response rating, Poinsettia, Wild ([5]; Postemergence, 31 g ai/ha): 25 | Plant response rating, Poinsettia, Wild ([5]; Postemergence, 62 g ai/ha): 40 | Plant response rating, Poinsettia, Wild ([5]; Postemergence, 125 g ai/ha): 35 | Plant response rating, Poinsettia, Wild ([5]; Preemergence, 31 g ai/ha): 5 | Plant response rating, Poinsettia, Wild ([5]; Preemergence, 61 g ai/ha): 5 | Plant response rating, Poinsettia, Wild ([5]; Preemergence, 62 g ai/ha): 10 | Plant response rating, Poinsettia, Wild ([5]; Preemergence, 125 g ai/ha): 35 | Plant response rating, Barnyardgrass ([6]; Postemergence, 16 g ai/ha): 85 | Plant response rating, Barnyardgrass ([6]; Postemergence, 31 g ai/ha): 90 | Plant response rating, Barnyardgrass ([6]; Postemergence, 62 g ai/ha): 95 | Plant response rating, Barnyardgrass ([6]; Postemergence, 125 g ai/ha): 95 | Plant response rating, Barnyardgrass ([6]; Preemergence, 31 g ai/ha): 65 | Plant response rating, Barnyardgrass ([6]; Preemergence, 61 g ai/ha): 5 | Plant response rating, Barnyardgrass ([6]; Preemergence, 62 g ai/ha): 85 | Plant response rating, Barnyardgrass ([6]; Preemergence, 125 g ai/ha): 100 | Plant response rating, Buckwheat, Wild ([7]; 16 g ai/ha): 95 | Plant response rating, Buckwheat, Wild ([7]; 31 g ai/ha): 100 | Plant response rating, Buckwheat, Wild ([7]; 62 g ai/ha): 100 | Plant response rating, Buckwheat, Wild ([7]; 125 g ai/ha): 100 | Plant response rating, Canada Thistle ([8]; 16 g ai/ha): 80 | Plant response rating, Canada Thistle ([8]; 31 g ai/ha): 80 | Plant response rating, Canada Thistle ([8]; 62 g ai/ha): 100 | Plant response rating, Canada Thistle ([8]; 125 g ai/ha): 100 | Plant response rating, Speedwell ([9]; 16 g ai/ha): 50 | Plant response rating, Speedwell ([9]; 31 g ai/ha): 60 | Plant response rating, Speedwell ([9]; 62 g ai/ha): 75 | Plant response rating, Speedwell ([9]; 125 g ai/ha): 90 | Plant response rating, Field Violet ([10]; 16 g ai/ha): 60 | Plant response rating, Field Violet ([10]; 31 g ai/ha): 70 | Plant response rating, Field Violet ([10]; 62 g ai/ha): 75 | Plant response rating, Field Violet ([10]; 125 g ai/ha): 80 | Plant response rating (0 to 100 scale) ([11]; 31 g ai/ha): 70 | Plant response rating (0 to 100 scale) ([11]; 125 g ai/ha): 100 | Plant response rating (0 to 100 scale) ([12]; 31 g ai/ha): 100 | Plant response rating (0 to 100 scale) ([12]; 125 g ai/ha): 100 | Plant response rating (0 to 100 scale) ([13]; 31 g ai/ha): 100 | Plant response rating (0 to 100 scale) ([13]; 125 g ai/ha): 100 | Plant response rating (0 to 100 scale) (corn (Zea mays); 31 g ai/ha): 0 | Plant response rating (0 to 100 scale) (corn (Zea mays); 125 g ai/ha): 10
